Assay results as given in US20040023841A1, “Combinatorial method for rapid screening of drug delivery formulations” (priority 2003, published 2004).

Experiments:
[1] = Permeability measured by traditional experiments (macroscopic diffusion cells); format: in vitro ADME
Experimental: (§1) The following experiments were performed to assess the usefulness of a method, which determines the loss of a test substance from a formulation over time. Experiments were performed to assess whether this method can be used for estimation of skin permeability to drugs. For these studies, phosphate buffered saline was used as a model formulation. […] Ten holes were drilled into the disc and each hole was about 2 mm wide. The disc was then placed on the SC prepared from human skin. Solutions of nine different drugs in PBS were placed in various holes. The concentration of drugs in the solutions were measured at time zero. The drugs were allowed to remain in contact with the skin for 24 hours. Samples were taken from the holes at the end of 24 hours and then analyzed using a liquid scintillation counter. The amount of drug lost from the donor hole was calculated. Permeability measurements of the same drugs were performed using conventional methods that use macroscopic diffusion cells.

[2] = Loss of drug from donor hole of Teflon disc placed on stratum corneum; format: in vitro ADME; details: drug in PBS, 2 mm hole, human SC, 24 hours contact, liquid scintillation counting
Experimental: as §1

[3] = Transport enhancement of radiolabelled mannitol into skin, 10x10 High Throughput array; format: in vitro ADME, pig; details: 10x10 array, 0-2% (w/v) in PBS, 7 hrs
Experimental: Radiolabelled mannitol was added to all formulations prepared in PBS at a concentration of 10 μCi/mL. The donor compartments were filled with these formulations with each formulation filled in 4 wells. The skin was then incubated for 7 hrs. The solutions from the donor compartment were removed at the end of incubation period. The skin was then gently rinsed to free any mannitol that could be sticking to the surface of the skin. The skin was then cut and dissolved in 0.5 M Solvable, a tissue and gel solubilizer from Packard Chemicals, at 60° C. overnight. […] The transport enhancement at different test formulations is then calculated as [formula] where CF is the radiation count for a particular test formulation and CC is the radiation count for the control i.e. PBS alone without any enhancer.

[4] = Conductivity enhancement of skin, Franz diffusion cells; format: in vitro ADME, pig; details: Franz diffusion cell, 0-2% in PBS, 24 hours
Experimental: A small stir bar and an Ag/AgCl disk electrode ([…] In-vivo Metrics) were added to the receiver chamber. In addition, the receiver chamber was filled with PBS. Pigskin was thawed and was mounted on the diffusion cell with the epidermis side facing up. The donor and the receiver compartments were clamped making sure there were no bubbles in the receiver chamber. Before each experiment, structural integrity of the skin was confirmed by measuring its conductivity. Skin samples with a resistivity less than 20 Kohm-cm^2 were assumed to be defective and not used. Skin conductivity was measured throughout the experiment to assess the effect of the formulation on skin structure. […] Each formulation was prepared in PBS. Current across the skin was measured over a period of 24 hours. The enhancement of skin conductivity was calculated as [formula] where It is the current across skin at time t, I0 being the current across skin at time 0.

[5] = Conductivity enhancement of skin, 10x10 High Throughput array; format: in vitro ADME, pig; details: 10x10 array, 0-2% (w/v) in PBS, up to 25 hrs, n=4
Experimental: This array is built as a pattern of 10×10 matrix. This corresponds to 100 test wells, each well 3 mm in diameter. The formulations to be tested are filled in the donor compartments. Each formulation is filled in 4 wells and each well can hold about 85 μL of the test formulation. Two 22 G 1½ needles are used as electrodes to measure current across the skin. One needle is stuck into the dermis and acts as the common electrode while the other needle is sequentially placed in each well to measure current. Current measurements are made across the skin periodically over a span of 25 hrs. […] The conductivity enhancement for a given formulation at time ‘t’ is then calculated as [formula] where It is the current across the skin at time ‘t’ and I0 is the current across the skin at time 0. […] The error bars correspond to the standard deviations. (n=4).

[6] = Transport enhancement of radiolabeled mannitol into skin, Franz diffusion cells; format: in vitro ADME, pig; details: Franz diffusion cell, 0-2% (w/v) in PBS, 7 hrs
Experimental: The skin was incubated in the cells for 7 hrs. At the end of 7 hrs the skin was removed from the cell and dissolved in 0.5M Solvable, a gel and tissue solubilizer from Packard Chemicals, at 60° C. overnight. […] The enhancement of transdermal mannitol transport due to the formulations was calculated using the equation, E^T=CF/CC, where CF is the radiation count for a particular formulation and CC is the radiation count for the control which in this case is simply PBS with radiolabeled mannitol but no surfactant.

[7] = Conductivity enhancement of skin, 5x5 High Throughput array; format: in vitro ADME, pig; details: 5x5 array, 0-2% (w/v) in PBS, up to 25 hrs
From the text: This array is built as a pattern of a 5×5 matrix. This corresponds to 25 test wells, each well 7.5 mm in diameter. It consists of two polycarbonate plates each 0.5 inches thick. The top plate (donor plate) has 25 through holes (wells), diameter 7.5 mm, drilled in it, each of which acts as an isolated donor chamber similar to the donor chamber in the Franz diffusion cells. The bottom plate (receiver plate) also has holes (wells) drilled in a similar pattern as the donor plate and simulates the receiver compartment of the diffusion cells. All wells are isolated from each other for all practical purposes and each well acts like an individual diffusion cell. The skin is placed between the donor and receiver plate and the plate assembly is clamped using four screws as shown in the figure.
Screening of the formulations is performed using pigskin. The wells in the receiver plate are filled with PBS. The skin is placed on the receiver plate with the stratum corneum (SC) facing the donor plate. The donor plate is then placed on the skin and the entire assembly is clamped tightly using four screws. […]
The formulations to be tested are filled in the donor compartments. […] The current, measured at 100 Hz and 143 mVpp, varied between 1 μA at time 0 to 25-30 μA at time 25 hrs.
The conductivity enhancements at time t″ is then calculated as [formula] […]

[8] = Transport enhancement of radiolabelled mannitol into skin, 5x5 High Throughput array; format: in vitro ADME, pig; details: 5x5 array, 0-2% (w/v) in PBS, 7 hrs
Experimental: Screening of the formulations is performed using pigskin. The wells in the receiver plate are filled with PBS. The skin is placed on the receiver plate with the stratum corneum (SC) facing the donor plate. The donor plate is then placed on the skin and the entire assembly is clamped tightly using four screws. A mild vacuum is then applied to remove any excess PBS that may be pushed in to the wells in the receiver plate. Radiolabelled mannitol was added to all formulations prepared in PBS at a concentration of 10 μCi/mL. The donor compartments were filled with these formulations each formulation was filled in 1 well. The skin was then incubated for 7 hrs. The solutions from the donor compartment were removed at the end of incubation period. The skin was then gently rinsed to free any mannitol that could be sticking to the surface of the skin. The skin was then cut and dissolved in 0.5 M Solvable, a tissue and gel solubilizer from Packard Chemicals at 60° C. overnight. […] The transport enhancement at different test formulations is then calculated as [formula] where CF is the radiation count for a particular test formulation and CC is the radiation count for the control i.e. PBS alone without any enhancer.

| Structure (SMILES) | Papp [1] | % Drug Lost from the Hole [2] | other results |
| --- | --- | --- | --- |
| C[C@]12CCC(=O)C=C1CC[C@@H]1[C@@H]2[C@@H](O)C[C@]2(C=O)[C@@H](C(=O)CO)CC[C@@H]12 [Aldosterone] | 0.00833 ×10⁻⁶ cm/s | 9% |  |
| CCCCCCO [Hexanol] |  | 31% |  |
| c1ccc2ccccc2c1 [Napthalene] |  | 47% |  |
| CCCCCCCCCCCCCCCCCCO [Octadecanol] | 25 ×10⁻⁶ cm/s | 77% |  |
| CCCCCCCCO [Octanol] | 19.4 ×10⁻⁶ cm/s | 47% |  |
| CC(=O)[C@H]1CC[C@H]2[C@@H]3CCC4=CC(=O)CC[C@]4(C)[C@H]3CC[C@]12C [Progesterone] | 5.56 ×10⁻⁶ cm/s | 44% |  |
| CCCCCCCCCCCCOS(=O)(=O)[O-].[Na+] [SLS, Sodium Lauryl Sulfate] |  |  | Transport enhancement (amount of mannitol transported, CF/CC) [3]: increases monotonously as a function of the surfactant concentration; Conductivity enhancement (It/I0) [4]: increases as a function of the SLS or TDAB concentration and reaches a maximum; Conductivity enhancement (It/I0) [5]: increases with increasing SLS or TDAB concentration and reaches a maximum after which it starts decreasing; Transport enhancement (amount of mannitol transported, CF/CC) [6]: increases monotonously as a function of the surfactant concentration; Conductivity enhancement (It/I0) [7]: increases as a function of the SLS or TDAB concentration and reaches a maximum; Transport enhancement (amount of mannitol transported, CF/CC) [8]: increases monotonously as a function of the surfactant concentration |
| C[C@]12CC[C@H]3[C@@H](CCC4=CC(=O)CC[C@@]43C)[C@@H]1CC[C@@H]2O [Testosterone] |  | 24% |  |
